Assay results published in ChEMBL document CHEMBL1128320 (J Med Chem, 1995).

What was measured:
[1] = molecular target: T1, Steroid 17-alpha-hydroxylase/17,20 lyase (Homo sapiens, UniProt P05093)
T1 sequence (P05093 whole entry): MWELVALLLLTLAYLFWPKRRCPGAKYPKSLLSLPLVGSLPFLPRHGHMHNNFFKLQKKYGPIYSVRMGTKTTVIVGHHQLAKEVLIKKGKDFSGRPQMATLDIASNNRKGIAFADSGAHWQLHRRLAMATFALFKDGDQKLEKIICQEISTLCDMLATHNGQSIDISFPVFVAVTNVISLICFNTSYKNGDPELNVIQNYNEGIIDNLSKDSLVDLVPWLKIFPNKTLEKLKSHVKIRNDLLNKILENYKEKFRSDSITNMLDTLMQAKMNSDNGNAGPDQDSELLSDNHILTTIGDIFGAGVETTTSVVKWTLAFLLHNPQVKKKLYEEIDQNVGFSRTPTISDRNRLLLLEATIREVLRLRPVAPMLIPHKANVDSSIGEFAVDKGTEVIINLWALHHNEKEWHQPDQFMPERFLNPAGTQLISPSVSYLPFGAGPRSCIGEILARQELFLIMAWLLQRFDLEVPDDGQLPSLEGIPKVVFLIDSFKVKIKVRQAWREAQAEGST

esterase = assay: in vitro; conditions: rat, in vivo
Description: Hydrolysis rate by rat liver microsomal esterase

[2] = molecular target: T2, Steroid 17-alpha-hydroxylase/17,20 lyase (Rattus norvegicus, UniProt P11715)
T2 sequence (P11715 whole entry): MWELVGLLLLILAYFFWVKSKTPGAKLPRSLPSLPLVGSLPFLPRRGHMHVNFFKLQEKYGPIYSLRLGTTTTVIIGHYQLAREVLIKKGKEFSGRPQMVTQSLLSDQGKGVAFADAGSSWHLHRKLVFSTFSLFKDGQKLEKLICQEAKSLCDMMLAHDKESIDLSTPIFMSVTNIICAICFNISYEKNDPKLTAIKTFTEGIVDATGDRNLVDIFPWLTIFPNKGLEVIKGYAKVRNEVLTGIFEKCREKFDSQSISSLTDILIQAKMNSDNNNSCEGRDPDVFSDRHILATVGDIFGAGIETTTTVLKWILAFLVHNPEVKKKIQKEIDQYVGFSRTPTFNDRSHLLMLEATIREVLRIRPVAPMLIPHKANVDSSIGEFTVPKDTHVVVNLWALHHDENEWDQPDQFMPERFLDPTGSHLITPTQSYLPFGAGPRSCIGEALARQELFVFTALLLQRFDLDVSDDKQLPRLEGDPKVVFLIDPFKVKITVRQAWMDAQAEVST

[3] = molecular target: T2, Steroid 17-alpha-hydroxylase/17,20 lyase; remark: listed apart in the source
[4] = molecular target: T1, Steroid 17-alpha-hydroxylase/17,20 lyase; remark: listed apart in the source

IC50 [1] | half-life (esterase) | IC50 [2] | IC50 [3] | IC50 [4] | Structure (SMILES)
260 nM | 16 min | 520 nM | 460 nM | 88 nM | C[C@@H]1C(OC(=O)Cc2cccnc2)CC2CC1C2(C)C (stereo not given in full)
82 nM | 50 min | – | – | 14 nM | CC(C(=O)OC1CC2CC([C@@H]1C)C2(C)C)c1cccnc1 (stereo not given in full)
14 nM | 17.5 min | 280 nM | 260 nM | 5 nM | C[C@@H]1C(OC(=O)Cc2ccncc2)CC2CC1C2(C)C (stereo not given in full)
140 nM | – | – | – | 35 nM | CCC(CC)(C(=O)OC1CC2CC([C@@H]1C)C2(C)C)c1ccncc1 (stereo not given in full)
19 nM | 100 min | – | – | 6 nM | CC(C(=O)OC1CC2CC([C@@H]1C)C2(C)C)c1ccncc1 (stereo not given in full)
90 nM | – | – | – | 13 nM | CC(C)(C(=O)OC12CC3CC(CC(C3)C1)C2)c1cccnc1
270 nM | – | – | – | 52 nM | C[C@@H]1CCC2C(C)(C)C3CC21CC[C@@]3(C)OC(=O)Cc1ccncc1 (stereo not given in full)
220 nM | – | – | – | 35 nM | CC(C(=O)OC12CC3CC(CC(C3)C1)C2)c1cccnc1 (stereo not given)
> 1000 nM | – | – | – | > 1000 nM | C[C@@H]1C(OC(=O)Cc2ccccn2)CC2CC1C2(C)C (stereo not given in full)
930 nM | – | – | – | 130 nM | O=C(Cc1cccnc1)OC12CC3CC(CC(C3)C1)C2
26 nM | – | – | – | 10 nM | C[C@@H]1C(OC(=O)C(C)(C)c2ccncc2)CC2CC1C2(C)C (stereo not given in full)
230 nM | – | – | – | 38 nM | C[C@@H]1CCC2C(C)(C)C3CC21CC[C@@]3(C)OC(=O)Cc1cccnc1 (stereo not given in full)
75 nM | – | – | – | 13 nM | CC(C)(C(=O)OC1(C)C2CC3CC(C2)CC1C3)c1cccnc1 (stereo not given)
1900 nM | – | – | – | 320 nM | CC1(OC(=O)Cc2cccnc2)C2CC3CC(C2)CC1C3 (stereo not given)
34 nM | 88 min | – | – | 9 nM | CCC(C(=O)OC1CC2CC([C@@H]1C)C2(C)C)c1ccncc1 (stereo not given in full)
29 nM | – | 52 nM | 47 nM | 15 nM | C[C@@H]1C(OC(=O)C(C)(C)c2cccnc2)CC2CC1C2(C)C (stereo not given in full)
4000 nM | – | – | – | 670 nM | C[C@@H]1CCC2C(C)(C)C3CC21CC[C@@]3(C)OC(=O)C(C)(C)c1cccnc1 (stereo not given in full)
